The target of experiment [1] is T1, MMP-11 (stromelysin-3, mST3) (Mus musculus, UniProt Q02853).
T1 construct: made in house; host or cells: E. coli
T1 sequence (Q02853 102-492): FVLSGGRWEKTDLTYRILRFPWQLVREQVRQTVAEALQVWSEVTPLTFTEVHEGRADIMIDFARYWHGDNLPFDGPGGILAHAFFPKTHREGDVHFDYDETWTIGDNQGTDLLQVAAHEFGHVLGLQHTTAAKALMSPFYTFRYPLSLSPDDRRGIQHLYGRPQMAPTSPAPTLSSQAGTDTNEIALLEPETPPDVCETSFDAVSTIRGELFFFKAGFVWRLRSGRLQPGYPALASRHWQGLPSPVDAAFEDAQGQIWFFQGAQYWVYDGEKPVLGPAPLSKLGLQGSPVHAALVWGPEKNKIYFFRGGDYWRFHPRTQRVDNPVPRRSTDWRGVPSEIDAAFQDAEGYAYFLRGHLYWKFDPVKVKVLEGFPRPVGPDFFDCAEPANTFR
Description: Ki determination with fluorogenic synthetic substrates, recombinant MMP-11. It is filed as biochemical, murine. The settings on record: Tris/50 mM HCl buffer, pH 6.8, 10 mM CaCl2, 25° C.; read-out: affinity constant Ki, MMP-11 mST3. As for the experimental part: (§1) The MMPs used were produced in recombinant form, in an E. coli expression system, and then purified using different types of chromatographies. Apart from stromelysin-3 (MMP-11), the MMPs produces correspond to human sequences. The Stromelysin-3 used in this study corresponds to the murine form.
(§2) The activity of each MMP was determined using two fluorogenic synthetic substrates. The cutoff of said substrates, which generates a fluorescent signal proportional to the quantity of split substrate, enables a precise determination of the kinetic parameters. The affinity constants Ki were calculated using the equation of Horowitz et al, Proc. Natl. Acad. Sci. USA, 1987, 84, p. 6654-6658 [14], accounting for the dependency of the percentage of inhibition measured experimentally according to the concentration of inhibitor, as a function of the enzyme and substrate concentration.
(§3) The experiments for conducted in a Tris/50 mM HCl buffer, pH 6.8, 10 mM CaCl2, 25° C.

For experiment [2], the target named is T2, MMP-14 (MT1-MMP) (Homo sapiens, UniProt P50281).
T2 construct: made in house; host or cells: E. coli
Description: Ki determination with fluorogenic synthetic substrates, recombinant MMP-14. It is filed as biochemical. The settings on record: Tris/50 mM HCl buffer, pH 6.8, 10 mM CaCl2, 25° C.; read-out: affinity constant Ki, MMP-14 MT1-MMP. The procedure:
as §1, §2, §3

In experiment [3] the target is T3, MMP-7 (Matrilysin) (Homo sapiens, UniProt P09237).
T3 construct: made in house; host or cells: E. coli
T3 sequence (P09237 95-267): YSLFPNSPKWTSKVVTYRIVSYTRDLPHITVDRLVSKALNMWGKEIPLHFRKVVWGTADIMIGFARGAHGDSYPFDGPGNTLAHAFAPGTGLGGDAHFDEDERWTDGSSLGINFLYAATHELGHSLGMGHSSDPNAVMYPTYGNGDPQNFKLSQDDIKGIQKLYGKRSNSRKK
As to the kind of experiment: Ki determination with fluorogenic synthetic substrates, recombinant MMP-7. Type of experiment: biochemical. The note with it: for inhibition at 1 µM: @ 1 μM inhibitor, read-out: percentage of inhibition, MMP-7. As for the experimental part: as §1, §2, §3

The target in experiment [4] is T4, MMP-1 (HFC) (Homo sapiens, UniProt P03956).
T4 construct: made in house; host or cells: E. coli
T4 sequence (P03956 100-469): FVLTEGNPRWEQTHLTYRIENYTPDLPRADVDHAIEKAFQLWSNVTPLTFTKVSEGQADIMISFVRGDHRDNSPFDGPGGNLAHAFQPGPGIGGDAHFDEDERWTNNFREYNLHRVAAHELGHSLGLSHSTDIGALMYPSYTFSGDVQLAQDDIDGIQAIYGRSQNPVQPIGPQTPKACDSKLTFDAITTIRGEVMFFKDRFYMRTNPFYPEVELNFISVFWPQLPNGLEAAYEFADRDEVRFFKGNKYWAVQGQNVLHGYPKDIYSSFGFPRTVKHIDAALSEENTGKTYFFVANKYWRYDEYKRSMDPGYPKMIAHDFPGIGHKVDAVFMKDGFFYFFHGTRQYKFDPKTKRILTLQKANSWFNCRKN
Description: Ki determination with fluorogenic synthetic substrates, recombinant MMP-1. Type of experiment: biochemical. The settings on record: for inhibition at 1 µM: @ 1 μM inhibitor, read-out: percentage of inhibition, MMP-1. The procedure: as §1, §2, §3

The target of experiment [5] is T5, MMP-2 (Gel-A) (Homo sapiens, UniProt P08253).
T5 construct: made in house; host or cells: E. coli
T5 sequence (P08253 110-660): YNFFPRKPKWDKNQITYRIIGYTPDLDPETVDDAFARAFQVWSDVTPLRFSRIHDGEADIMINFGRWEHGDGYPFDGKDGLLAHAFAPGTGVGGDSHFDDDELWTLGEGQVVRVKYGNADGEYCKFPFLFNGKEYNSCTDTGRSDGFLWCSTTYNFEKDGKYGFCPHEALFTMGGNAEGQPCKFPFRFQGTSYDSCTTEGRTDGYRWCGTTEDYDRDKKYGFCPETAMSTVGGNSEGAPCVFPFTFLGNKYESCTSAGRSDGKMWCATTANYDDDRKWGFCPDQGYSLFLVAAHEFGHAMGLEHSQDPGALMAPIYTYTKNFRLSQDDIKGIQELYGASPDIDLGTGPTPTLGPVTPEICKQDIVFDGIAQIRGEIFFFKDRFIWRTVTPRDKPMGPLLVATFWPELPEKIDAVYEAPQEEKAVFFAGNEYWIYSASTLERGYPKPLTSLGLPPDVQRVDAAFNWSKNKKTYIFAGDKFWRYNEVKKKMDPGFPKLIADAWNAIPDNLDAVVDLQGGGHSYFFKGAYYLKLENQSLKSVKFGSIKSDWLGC
Description: Ki determination with fluorogenic synthetic substrates, recombinant MMP-2. It is filed as biochemical. The settings on record: Tris/50 mM HCl buffer, pH 6.8, 10 mM CaCl2, 25° C.; read-out: affinity constant Ki, MMP-2 Gel-A. As for the experimental part: as §1, §2, §3

Experiment [6] concerns the target T6, MMP-9 (Gel-B) (Homo sapiens, UniProt P14780).
T6 construct: made in house; host or cells: E. coli
Description: Ki determination with fluorogenic synthetic substrates, recombinant MMP-9. It is filed as biochemical. The note with it: Tris/50 mM HCl buffer, pH 6.8, 10 mM CaCl2, 25° C.; read-out: affinity constant Ki, MMP-9 Gel-B. As for the experimental part: as §1, §2, §3

In experiment [7] the test system is malignant murine C26 cells. As to the kind of experiment: Tumorigenesis model: subcutaneous graft of malignant murine C26 cells in syngenic mice. Type of experiment: in vivo. The settings on record: 150 μg of inhibitor/mouse/day, intraperitoneal. As for the experimental part: The tumorigenesis model used to test the effect of said RXPO3 inhibitor in vivo consists of a subcutaneous graft of malignant murine C26 cells in syngenic mice (with a genetic background similar to that of the injected cells).
The C26 cells established from Balb c mouse colic cancer (Corbett et al., 1975, Cancer Res, 35:2434-2439 [15] are cultured until subconfluence. After trypsinisation, the cells are centrifuged at 1000 g for 10 minutes. The sediment is washed and resuspended in 1×PBS. A […] volume, containing 5×10^4 C26 cells, is injected subcutaneously at 2 sites on the back of 8 to 9-week old mice. The inhibitor is solubilised in 1× PBS and […] of inhibitor in a […] volume is administered by the intraperitoneal route. The treatment starts on the day of the injection of the C26 cells and continues at a rate of one injection a day for 25 days. The tumoral volumes are measured every day.
Three identical and independent tumorigenesis experiments were conducted, according to the protocol given above. The results obtained were similar. One of them is reported below.
The experiment related to 12 animals, 6 receiving a treatment (150 μg of inhibitor/mouse/day) and 6 used as controlled animals (150 μl 1×PBS).

Experiment [8] has as its target T7, MMP-8 (HNC) (Homo sapiens, UniProt P22894).
T7 construct: made in house; host or cells: E. coli
As to the kind of experiment: Ki determination with fluorogenic synthetic substrates, recombinant MMP-8. It is filed as biochemical. The note with it: Tris/50 mM HCl buffer, pH 6.8, 10 mM CaCl2, 25° C.; read-out: affinity constant Ki, MMP-8 HNC. As for the experimental part: as §1, §2, §3

This is an account of results in patent US6630501B1, “Phosphinic pseudo-peptides that may be used as matrix zinc metalloprotease inhibitors” (Commissariat a l'energie Atomique, priority 1999, dated 2003).

The structures appear in SMILES notation.

Usually Ki stands for the dissociation constant of the complex between target and ligand, obtained from inhibition or displacement. In general, inhibition refers to the change of the read-out against control, counted positive when it falls.

T6 sequence (P14780 94-707): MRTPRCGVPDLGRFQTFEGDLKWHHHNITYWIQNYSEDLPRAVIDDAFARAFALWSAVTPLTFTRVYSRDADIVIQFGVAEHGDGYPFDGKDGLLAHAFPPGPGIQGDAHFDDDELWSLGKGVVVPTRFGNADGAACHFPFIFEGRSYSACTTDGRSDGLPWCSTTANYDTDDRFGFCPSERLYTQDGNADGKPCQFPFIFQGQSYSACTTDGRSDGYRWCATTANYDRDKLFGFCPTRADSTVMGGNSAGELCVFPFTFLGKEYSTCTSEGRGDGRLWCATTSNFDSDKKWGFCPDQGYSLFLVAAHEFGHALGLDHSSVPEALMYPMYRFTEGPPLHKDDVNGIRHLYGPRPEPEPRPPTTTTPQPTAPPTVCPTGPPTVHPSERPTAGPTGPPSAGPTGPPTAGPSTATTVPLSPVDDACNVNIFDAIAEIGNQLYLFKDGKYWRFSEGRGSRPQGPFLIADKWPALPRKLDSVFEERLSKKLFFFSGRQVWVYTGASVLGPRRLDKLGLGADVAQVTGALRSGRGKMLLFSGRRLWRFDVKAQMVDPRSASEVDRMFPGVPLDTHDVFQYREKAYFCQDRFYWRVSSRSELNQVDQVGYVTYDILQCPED
T7 sequence (P22894 101-467): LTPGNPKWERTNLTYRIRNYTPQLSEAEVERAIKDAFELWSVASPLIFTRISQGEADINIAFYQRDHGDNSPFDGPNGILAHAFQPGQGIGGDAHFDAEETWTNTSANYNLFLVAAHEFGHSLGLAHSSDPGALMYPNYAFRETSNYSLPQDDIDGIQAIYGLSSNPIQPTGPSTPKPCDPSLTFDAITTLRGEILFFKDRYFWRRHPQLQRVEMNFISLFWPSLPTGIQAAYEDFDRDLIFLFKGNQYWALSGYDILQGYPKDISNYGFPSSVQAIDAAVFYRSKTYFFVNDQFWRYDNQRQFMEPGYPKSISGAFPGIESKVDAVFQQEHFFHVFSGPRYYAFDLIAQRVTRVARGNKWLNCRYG

For `NC(=O)C(Cc1c[nH]c2ccccc12)NC(=O)C(CCCc1ccccc1)CP(=O)(O)C(Cc1ccccc1)NC(=O)OCc1ccccc1` (single isomer, unassigned) [Compound 15 R I, ZPheΨ(PO2CpH2)pPheTrpNH2], the Ki in experiment [1] came out at 6 nM; in experiment [2] it was 90 nM; in experiment [5], 54 nM; in experiment [6], 42 nM; in experiment [8], 16 nM. Further, the “percentage of inhibition, MMP-7” value in experiment [3] (@ 20 mM inhibitor, listed as R I) is recorded as 44% @ 20 mM. Also, the “percentage of inhibition, MMP-1” value in experiment [4] (@ 2 mM inhibitor, listed as R I) is 18% @ 2 mM. Also, the “mean and median tumour volumes in treated versus control animals” value in experiment [7] (Days 10 to 25) was “always lower”. In experiment [7] (day D15 to day D20, one injection a day for 25 days), the “difference in tumour size, treated versus control animals” value was approximately 50%.
With `NC(=O)C(Cc1c[nH]c2ccccc12)NC(=O)C(CCCc1ccccc1)CP(=O)(O)C(Cc1ccccc1)NC(=O)c1cc2cc(Cl)cc(Cl)c2oc1=O` (stereo not drawn) [Compound 33], the Ki amounted to 5 nM in experiment [1]; 217 nM in experiment [2]; 100 nM in experiment [5]; 110 nM in experiment [6]; 17 nM in experiment [8]. In addition, the inhibition at 1 µM came to 37% in experiment [3] and 47% in experiment [4].
`CC(NC(=O)OCc1ccccc1)C(=O)NC(Cc1ccccc1)P(=O)(O)CC(CCCc1ccccc1)C(=O)NC(Cc1c[nH]c2ccccc12)C(N)=O` (stereo not drawn) [Compound 34]: the Ki came out at 8 nM in experiment [1]; 41 nM in experiment [2]; 11 nM in experiment [5]; 10 nM in experiment [6]; 5.5 nM in experiment [8]. Also, the inhibition at 1 µM in experiment [3] turned out to be 18%; in experiment [4], 24%.
In the case of `CC(C)CC(NC(=O)OCc1ccccc1)C(=O)NC(Cc1ccccc1)P(=O)(O)CC(CCCc1ccccc1)C(=O)NC(Cc1c[nH]c2ccccc12)C(N)=O` (stereo not drawn) [Compound 35], the Ki in experiment [1] was determined as 6 nM; in experiment [2], 53 nM; in experiment [5], 40 nM; in experiment [6], 22 nM; in experiment [8], 7 nM. Further, the inhibition at 1 µM in experiment [3] stood at 32%; in experiment [4], 20%.
